Reference: patent US20230085307A1, “PYRIDAZINONE COMPOUND AND HERBICIDE” (NISSAN CHEMICAL CORPORATION, priority 2019, published 2023)

Key:
blackgrass = assay: Test Example 5: herbicidal effect by foliage application, plastic box (Table 20, symbol J); type: in vivo, blackgrass (Alopecurus myosuroides); conditions: foliage application, evaluated three weeks after application
Procedure, shortened: (§1)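 Foliar spray test: emulsion formulation diluted in water to a set application rate, sprayed onto 14-day-old plants raised in diluvial soil at 25° C to 30° C under glass. Both herbicidal effect and crop effect rated visually three weeks later.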

oval-leafed pondweed = assay: Test Example 2: herbicidal activity, application during weed generation under submerged conditions (Table 17, symbol C); type: in vivo, oval-leafed pondweed (Monochoria vaginalis); conditions: AAH 320 g/ha; application during weed generation, submerged conditions
Experimental: (§2) [Test Example 2] Herbicidal Activity Test by Application during Weed Generation under Submerged Conditions After alluvial soil was placed into 1/10000 are of Wagner pot, water was poured and mixed to form a submerged condition having a water depth of 4 cm. Seeds of late watergrass, Japanese bulrush, and oval-leafed pondweed were sowed in a mixed manner in the aforementioned pot, and the pot was placed in a greenhouse at 25° C. to 30° C. for growth of the plants. When late watergrass, Japanese bulrush, and oval-leafed pondweed were grown to one leaf stage to two leaf stage, the emulsion agent of the compound of the present invention prepared according to Formulation Example 2 was diluted with water so as to achieve a predetermined herbicide amount, and the diluted emulsion agent was applied to the surface of the water. Three weeks after the herbicide application, the effect of the herbicide on each plant was evaluated according to the criteria of Test Example 1.

windgrass = assay: Test Example 5: herbicidal effect by foliage application, plastic box (Table 20, symbol L); type: in vivo, windgrass (Apera spica-venti); conditions: foliage application, evaluated three weeks after application
Procedure, shortened: as §1

rice flat sedge = assay: Test Example 3: herbicidal effect by foliage application, Wagner pot (Table 18, symbol E); type: in vivo, rice flat sedge (Cyperus iria)
Procedure, shortened: (§3)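 Plants were sown in alluvial soil held under 0.1–0.5 cm standing water and grown 14 days in a greenhouse at 25–30 °C. An emulsifiable formulation, water-diluted to the set dose, was then sprayed onto the foliage, and effects were scored three weeks later using previously defined criteria.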

velvetleaf = assay: Test Example 5: herbicidal effect by foliage application, plastic box (Table 20, symbol M); type: in vivo, velvetleaf (Abutilon theophrasti); conditions: foliage application, evaluated three weeks after application
Procedure, shortened: as §1

redroot pigweed = assay: Test Example 5: herbicidal effect by foliage application, plastic box (Table 20, symbol N); type: in vivo, redroot pigweed (Amaranthus retroflexus); conditions: foliage application, evaluated three weeks after application
Procedure, shortened: as §1

barnyard grass [1] = assay: Test Example 3: herbicidal effect by foliage application, Wagner pot (Table 18, symbol H); type: in vivo, barnyard grass (Echinochloa crus-galli)
Procedure, shortened: as §3

chickweed = assay: Test Example 5: herbicidal effect by foliage application, plastic box (Table 20, symbol P); type: in vivo, common chickweed (Stellaria media); conditions: foliage application, evaluated three weeks after application
Procedure, shortened: as §1

southern crabgrass = assay: Test Example 5: herbicidal effect by foliage application, plastic box (Table 20, symbol F); type: in vivo, southern crabgrass (Digitaria ciliaris); conditions: foliage application, evaluated three weeks after application
Procedure, shortened: as §1

Japanese bulrush = assay: Test Example 2: herbicidal activity, application during weed generation under submerged conditions (Table 17, symbol B); type: in vivo, Japanese bulrush (Schoenoplectus juncoides); conditions: AAH 320 g/ha; application during weed generation, submerged conditions
Procedure, shortened: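 Wagner pot, alluvial soil, 4 cm flood; mixed sowing of all species; greenhouse 25° C.–30° C. Emulsifiable formulation, water-diluted to predetermined dose, applied to paddy water at 1–2 leaf stage. Effect rated at 3 wk using the earlier test's scoring criteria.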

persian speedwell = assay: Test Example 5: herbicidal effect by foliage application, plastic box (Table 20, symbol R); type: in vivo, Persian speedwell (Veronica persica); conditions: foliage application, 320 g/ha, evaluated three weeks after application
Procedure, shortened: as §1

Chinese sprangletop = assay: Test Example 3: herbicidal effect by foliage application, Wagner pot (Table 18, symbol D); type: in vivo, chinese sprangletop (Leptochloa chinensis)
Procedure, shortened: as §3

late watergrass = assay: Test Example 2: herbicidal activity, application during weed generation under submerged conditions (Table 17, symbol A); type: in vivo, late watergrass (Echinochloa oryzicola); conditions: AAH 320 g/ha; application during weed generation, submerged conditions
Experimental: as §2

barnyard grass [2] = assay: Test Example 5: herbicidal effect by foliage application, plastic box (Table 20, symbol H); type: in vivo, barnyard grass (Echinochloa crus-galli); conditions: foliage application, evaluated three weeks after application
Procedure, shortened: as §1

lambsquarters = assay: Test Example 5: herbicidal effect by foliage application, plastic box (Table 20, symbol O); type: in vivo, lambsquarters (Chenopodium album); conditions: foliage application, evaluated three weeks after application
Procedure, shortened: as §1

green foxtail = assay: Test Example 5: herbicidal effect by foliage application, plastic box (Table 20, symbol G); type: in vivo, green foxtail (Setaria viridis); conditions: foliage application, evaluated three weeks after application
Procedure, shortened: as §1

wild oat = assay: Test Example 5: herbicidal effect by foliage application, plastic box (Table 20, symbol I); type: in vivo, wild oat (Avena fatua); conditions: foliage application, evaluated three weeks after application
Procedure, shortened: as §1

Italian ryegrass = assay: Test Example 5: herbicidal effect by foliage application, plastic box (Table 20, symbol K); type: in vivo, Italian ryegrass (Lolium multiflorum); conditions: foliage application, evaluated three weeks after application
Procedure, shortened: as §1

[3] = amount of applied herbicide 320 g/ha

## Cc1nn(C)c(=O)c(-c2c(-c3ccc(OCc4ccccc4)cc3)sc3ccc(F)cc23)c1OCc1ccccc1 [2-065]
blackgrass; 320 g/ha
  herbicidal effect on J: blackgrass: 0 (Herbicidal rate of 5% or less (almost no effect))
oval-leafed pondweed
  herbicidal effect rating, C: oval-leafed pondweed: 0 (Herbicidal rate of 5% or less (almost no effect))
windgrass; 320 g/ha
  herbicidal effect on L: windgrass: 0 (Herbicidal rate of 5% or less (almost no effect))
Rice flat sedge; 320 g/ha
  herbicidal effect on E (rice flat sedge), rating 0-5: 3 (Herbicidal rate of 40% or more and less than 70%)
velvetleaf; 320 g/ha
  herbicidal effect on M: velvetleaf: 0 (Herbicidal rate of 5% or less (almost no effect))
Redroot pigweed; 320 g/ha
  herbicidal effect on N: redroot pigweed: 3 (Herbicidal rate of 40% or more and less than 70%)
Barnyard grass [1]; 320 g/ha
  herbicidal effect on H (barnyard grass), rating 0-5: 3 (Herbicidal rate of 40% or more and less than 70%)
chickweed; 320 g/ha
  herbicidal effect on P: chickweed: 0 (Herbicidal rate of 5% or less (almost no effect))
Southern crabgrass; 320 g/ha
  herbicidal effect on F: southern crabgrass: 0 (Herbicidal rate of 5% or less (almost no effect))
Japanese bulrush
  herbicidal effect rating, B: Japanese bulrush: 0 (Herbicidal rate of 5% or less (almost no effect))
Persian speedwell
  herbicidal effect on R: persian speedwell: 0 (Herbicidal rate of 5% or less (almost no effect))
Chinese sprangletop; 320 g/ha
  herbicidal effect on D (Chinese sprangletop), rating 0-5: 3 (Herbicidal rate of 40% or more and less than 70%)
Late watergrass
  herbicidal effect rating, A: late watergrass: 3 (Herbicidal rate of 40% or more and less than 70%)
Barnyard grass [2]; 320 g/ha
  herbicidal effect on H: barnyard grass: 0 (Herbicidal rate of 5% or less (almost no effect))
lambsquarters; 320 g/ha
  herbicidal effect on O: lambsquarters: 1 (Herbicidal rate of 5% or more and less than 20%)
Green foxtail; 320 g/ha
  herbicidal effect on G: green foxtail: 0 (Herbicidal rate of 5% or less (almost no effect))
Wild oat; 320 g/ha
  herbicidal effect on I: wild oat: 0 (Herbicidal rate of 5% or less (almost no effect))
Italian ryegrass; 320 g/ha
  herbicidal effect on K: Italian ryegrass: 0 (Herbicidal rate of 5% or less (almost no effect))

## COCCOc1cccc(-c2sc3ccc(F)cc3c2-c2c(O)c(C)nn(C)c2=O)c1 [2-271]
blackgrass; AAH 320 g/ha
  J: blackgrass, herbicidal effect (criteria 0-5): 0 (Herbicidal rate of 5% or less (almost no effect))
oval-leafed pondweed
  herbicidal effect rating, C: oval-leafed pondweed: 0 (Herbicidal rate of 5% or less (almost no effect))
windgrass; AAH 320 g/ha
  L: windgrass, herbicidal effect (criteria 0-5): 0 (Herbicidal rate of 5% or less (almost no effect))
Rice flat sedge; [3]
  herbicidal effect on E: rice flat sedge: 3 (Herbicidal rate of 40% or more and less than 70%)
velvetleaf; AAH 320 g/ha
  M: velvetleaf, herbicidal effect (criteria 0-5): 0 (Herbicidal rate of 5% or less (almost no effect))
Redroot pigweed; AAH 320 g/ha
  N: redroot pigweed, herbicidal effect (criteria 0-5): 3 (Herbicidal rate of 40% or more and less than 70%)
Barnyard grass [1]; [3]
  herbicidal effect on H: barnyard grass: 3 (Herbicidal rate of 40% or more and less than 70%)
chickweed; AAH 320 g/ha
  P: chickweed, herbicidal effect (criteria 0-5): 5 (Herbicidal rate of 90% or more (almost completely withered))
Southern crabgrass; AAH 320 g/ha
  F: southern crabgrass, herbicidal effect (criteria 0-5): 0 (Herbicidal rate of 5% or less (almost no effect))
Japanese bulrush
  herbicidal effect rating, B: Japanese bulrush: 0 (Herbicidal rate of 5% or less (almost no effect))
Chinese sprangletop; [3]
  herbicidal effect on D: Chinese sprangletop: 0 (Herbicidal rate of 5% or less (almost no effect))
Late watergrass
  herbicidal effect rating, A: late watergrass: 3 (Herbicidal rate of 40% or more and less than 70%)
Barnyard grass [2]; AAH 320 g/ha
  H: barnyard grass, herbicidal effect (criteria 0-5): 0 (Herbicidal rate of 5% or less (almost no effect))
lambsquarters; AAH 320 g/ha
  O: lambsquarters, herbicidal effect (criteria 0-5): 0 (Herbicidal rate of 5% or less (almost no effect))
Green foxtail; AAH 320 g/ha
  G: green foxtail, herbicidal effect (criteria 0-5): 0 (Herbicidal rate of 5% or less (almost no effect))
Wild oat; AAH 320 g/ha
  I: wild oat, herbicidal effect (criteria 0-5): 0 (Herbicidal rate of 5% or less (almost no effect))
Italian ryegrass; AAH 320 g/ha
  K: Italian ryegrass, herbicidal effect (criteria 0-5): 0 (Herbicidal rate of 5% or less (almost no effect))
